In patent US20160368872A1, “COMPOUNDS AND METHODS FOR TREATING CANCERS” (HEALTH RESEARCH, INC., priority 2013, published 2016):

Key:
CWR22R cells [1] = assay type: cell-based
Procedure: All compounds were tested for toxicity using 4 cells lines, target cells-CWR22R and non-target cells, Hela, PC3 and MDA-MB-231 (FIGS. 1A-F).
LC50 data of in vitro 72 hours cytotoxicity assay are included in this table for comparison.

[2] = plasma concentration after intravenous and intraperitoneal injections (PK); assay type: in vivo; details: for bioavailability through IP injection: IP versus IV, doses 50-100 mg/kg; for course of plasma concentration: after intravenous and intraperitoneal injections, 50-100 mg/kg
CWR22R cells [3] = assay: toxicity of PLA1055 to CWR22R cells depending on time of incubation (LC90, Alamar Blue); assay type: cell-based; details: incubation 4-8 hours; survival detected at 72 hours
Procedure: FIG. 21. Toxicity of PLA1055 to CWR22R cells in vitro depending on time of incubation. PLA1055 was added to CWR22R in full range of concentrations for the periods of time shown on the right. After that drug containing media were changed for drug free and survival of cells was detected at 72 hours after start of treatment using Alamar Blue assay (Promega).
An in vitro experiment was run to detect the concentration of PLA1055 needed to kill all tumor cells in vitro (LC90) during different periods of time (30 minutes-72 hours, FIG. 21)).

[4] = tissue drug concentrations in mice bearing CWR22R tumors; assay type: in vivo, SCID mice
Procedure: (§1) We tested these compounds in an in vivo efficacy experiment using model of CRPC in SCID mice, CWR22R. Two compounds, PLA1079 and 1125, which were synthesized in the amount of 500 mg were tested in full scale experiment with either 5 IV daily injections or 10 IP daily injections. After 5 IP or IV injections intra-tumor concentration of the compounds were measured in few mice from this experiment.
Two other compounds, PLA1148 and 1098 (PK testing in FIGS. 8 and 9) were tested in a small scale efficacy experiment. Upon PK testing of the compound PLA1148 one mouse was injected twice with 10 min interval. However the concentration of the drug in plasma of this mouse was not twice, but >4 times higher than in mice injected once. […] It was decided to utilize this observation in an attempt to get higher plasma and tumor concentration of both compounds. Therefore in the pilot efficacy experiment in the same model of CWR22R cells mice were treated with 2 IP injections with 10 minute interval. Treatment with PLA1098 was carried out for two days. […] However this is so far the highest concentration found in tumor. […]

CWR22R tumors = assay: in vivo efficacy, subcutaneous xenografts of CWR22R cells in SCID mice
Procedure: as §1
(§2) Two other compounds, PLA1148 and 1098 (PK testing in FIGS. 8 and 9) were tested in a small scale efficacy experiment. Upon PK testing of the compound PLA1148 one mouse was injected twice with 10 min interval. However the concentration of the drug in plasma of this mouse was not twice, but >4 times higher than in mice injected once. […] It was decided to utilize this observation in an attempt to get higher plasma and tumor concentration of both compounds. Therefore in the pilot efficacy experiment in the same model of CWR22R cells mice were treated with 2 IP injections with 10 minute interval. Treatment with PLA1098 was carried out for two days. […] However this is so far the highest concentration found in tumor.
Pilot efficacy experiments were run for compounds: PLA1163, PLA1148 using the same model of subcutaneous xenografts of CWR22R cells in SCID mice (FIGS. 18 and 19).

androgen receptor = assay: AR level in cells with inhibited p53 activity; assay type: cell-based; details: MCF7 cells with functionally inactive p53 (R175H, GSE56)
Description: Also tested was the hypothesis that degradation of androgen receptor in prostate and breast cancer cells may be due to p53 induced accumulation of mdm2, which is also ubiquitin ligase for androgen receptor (FIG. 15). p53 was inactivated in several cell lines using different approaches what led to the blockade of mdm2 accumulation after c52 treatment. However androgen receptor was still degraded in c52 treated cells even in the absence of p53 activation and mdm2 accumulation (FIG. 16).

Caveolin1 = assay: expression of Caveolin1 in sensitive versus resistant cells; assay type: cell-based; details: MDA MB 231 and MCF7 cells
Description: FIG. 12. Expression of Caveolin1 in sensitive versus resistant cells. Caveolin1 is expressed in resistant MDA MB 231 cells, but not in sensitive MCF7 cells.

[5] = toxicity observed in mice of the pilot efficacy experiments; assay type: in vivo
Procedure: as §2
This compound may be also potentially promising.

[6] = test system: presumable target protein in protein lysates from sensitive CWR22r cells; assay: DARTS (Drug Affinity Responsive Target Stability) assay; details: treated vs untreated
Procedure: FIG. 24. DARTS (Drug Affinity Responsive Target Stability) assay was performed using c52 and PLA1118. According to this assay these compounds are capable of protecting presumable target protein from protease degradation. Protein lysates from sensitive CWR22r cells were incubated with or without the drug and subsequently digested with the indicated concentration of pronase. A. c52 was used (lane T-treated, M-marker) with indicated concentrations of pronase; ability of c52 to protect its target from protease cleavage was judged based on presence of protein band in the treated lane vs the untreated (UT) control.

[7] = 24 hours after last injection, 2 IP injections with 10 minute interval, two days

Which results are given for `CC(=O)c1ccc2c(c1)c1ccccc1n2CCCF` [PLA1055]?
CC50 (CWR22R cells [1]): 40 nM; plasma concentration at 8 hours ([2]; 8 hours, single IV administration of 50 mg/kg (FIG. 20)): below 1 uM; time up to which compound was detected ([2]; single IV administration of 50 mg/kg (FIG. 20)): up to 24 hours; LC90 (CWR22R cells [3]): 2500 nM

Which CC50 (CWR22R cells [1]) does the source give for `CCCn1c2ccccc2c2cc(-c3nnco3)ccc21` [PLA1079] here?
Its CC50 is 120 nM.

What about the “Tumor concentration” value ([4]; 100 mg/kg, IP/IV) of the same compound?
Its value is 24 to 48 nM.

And the “bioavailability through IP injection” value [2]?
Its value is “very high bioavailability”.

And the “course of plasma concentration” value [2]?
Its value is “fast reduction of concentration during the first hour”.

And the in vivo efficacy (CWR22R tumors; 5 IV daily injections or 10 IP daily injections)?
The in vivo efficacy was “absence of in vivo efficacy”.

What about the AR level (androgen receptor) of the same compound?
The AR level was “AR is being degraded”.

What about the “levels of Caveolin1 expression” value (Caveolin1) of the same compound?
The value was “did not change”.

Which CC50 (CWR22R cells [1]) does the source give for `CCCn1c2ccccc2c2c3c(ccc21)C(=O)N(C)C3` [PLA1098] here?
Its CC50 is 40 nM.

And the “Liver” value ([4]; 100 mg/kg, IP)?
The value was 0 nM.

What about the “Tumor concentration” value ([4]; 100 mg/kg, IP) of the same compound?
The value was 23 to 25 nM.

What about the Intratumor concentration ([4]; 2 tested tumors at 24 hours after last injection, 2 IP injections with 10 minute interval, two days) of the same compound?
The Intratumor concentration was 25 nM.

What about the compound in liver [4, 7] of the same compound?
The compound in liver was “no detectable”.

What about the compound in plasma [4, 7] of the same compound?
Its compound in plasma is “no detectable”.

And the “bioavailability through IP injection” value [2]?
Its value is “very high bioavailability”.

And the “course of plasma concentration” value [2]?
Its value is “fast reduction of concentration during the first hour”.

What about the “tumor volume and tumor weight vs vehicle control” value (CWR22R tumors; 2 IP injections with 10 minute interval for two days, tumors excised 12 days after treatment) of the same compound?
The value was “certain reduction of tumor volume and tumor weigh in the 1098 treated group vs vehicle control, but not statistically significant”.

What about the in vivo efficacy (CWR22R tumors; summary statement) of the same compound?
The in vivo efficacy was “evidence of in vivo efficacy”.

And the “side effects during the treatment” value ([5]; 2 IP injections with 10 minute interval for two days)?
The value was “no signs of side effects were noticed”.

What about the signs of toxicity ([5]; summary statement) of the same compound?
Its signs of toxicity is “without any signs of toxicity”.

And the “protection of target protein band from pronase degradation” value [6]?
The value was “protected their targets from degradation”.

With `CCCn1c2ccccc2c2cc(S(C)(=O)=O)ccc21` [PLA1118] as the compound, how does the “protection of target protein band from pronase degradation” value [6] read?
Its value is “faintly”.
